Results published in ChEMBL document CHEMBL2396517, “Design, synthesis and biological evaluation of novel aminothiazoles as antiviral compounds acting against human rhinovirus” (Bioorg Med Chem Lett, 2013).
One block for each compound: values may come before it.

Experiments:
[1] = physchem; conditions: buffer, pH 7.4
[2] = Permeability across apical to basolateral side in human Caco2 cells; assay type: ADME, cell-based; conditions: Caco-2, read-out: permeability
[3] = Cmax in rat at 5 mg/kg, po and 2 mg/kg, iv; assay type: ADME, organism-based; conditions: in vivo
[4] = (§1) Oral bioavailability in rat at 5 mg/kg; assay type: ADME, organism-based; conditions: in vivo
[5] = Total clearance in rat at 5 mg/kg, po and 2 mg/kg, iv; assay type: ADME, organism-based; conditions: in vivo
[6] = AUC in rat at 5 mg/kg, po and 2 mg/kg, iv; assay type: ADME, organism-based; conditions: plasma
[7] = Half life in rat at 5 mg/kg, po and 2 mg/kg, iv; assay type: ADME, organism-based; conditions: in vivo
[8] = system: Rattus norvegicus; experiment: as §1; assay type: ADME, organism-based; conditions: in vivo
[9] = Cmax in CD1 mouse at 50 mg/kg; assay type: ADME, organism-based; parameters: dose 50 mg/kg; conditions: in vivo
[10] = Cmax in CD1 mouse at 250 mg/kg; assay type: ADME, organism-based; parameters: dose 250 mg/kg; conditions: in vivo
[11] = AUC in CD1 mouse at 5 mg/kg; assay type: ADME, organism-based; parameters: dose 5 mg/kg; conditions: plasma
[12] = AUC in CD1 mouse at 50 mg/kg; assay type: ADME, organism-based; parameters: dose 50 mg/kg; conditions: plasma
[13] = AUC in CD1 mouse at 250 mg/kg; assay type: ADME, organism-based; parameters: dose 250 mg/kg; conditions: plasma
[14] = Cmax in CD1 mouse at 5 mg/kg; assay type: ADME, organism-based; parameters: dose 5 mg/kg; conditions: in vivo
[15] = Total clearance in CD1 mouse at 2 mg/kg, iv; assay type: ADME, organism-based; parameters: dose 2 mg/kg, route intravenous; conditions: in vivo

logD [1]: 2.9 | Papp A→B [2]: 11.3 ×10⁻⁶ cm/s
SMILES: Nc1ccc(-c2cnc(NC(=O)CN(Cc3ccccc3)C(=O)c3ccncc3)s2)cc1

logD [1]: 2.6 | Papp A→B [2]: 2.3 ×10⁻⁶ cm/s
SMILES: Nc1ccc(-c2cnc(NC(=O)CN(Cc3ccccc3)C(=O)c3ccncc3)s2)cn1

logD [1]: 2.8 | Papp A→B [2]: 2.1 ×10⁻⁶ cm/s
SMILES: Cc1nc(NC(=O)CN(Cc2ccccc2)C(=O)c2ccncc2)sc1-c1ccc(N)nc1

logD [1]: 2.5 | Papp A→B [2]: 19 ×10⁻⁶ cm/s
SMILES: Cc1nc(NC(=O)CN2C(=O)OC[C@H]2C(C)C)sc1-c1ccc(N)cc1

logD [1]: 3.2 | Papp A→B [2]: 21 ×10⁻⁶ cm/s
SMILES: CC(=O)N1[C@@H](c2ccccc2)CC[C@H]1C(=O)Nc1ncc(-c2ccc(N)cc2)s1

Papp A→B [2]: 17 ×10⁻⁶ cm/s
SMILES: Cc1ccc(C(=O)N(CC(=O)Nc2ncc(-c3ccc(N)cc3)s2)Cc2ccccc2)cn1

Cmax [3]: 1.5 µM | bioavailability [4]: 77% | clearance [5]: 70 mL/min/kg | logD [1]: 2.8 | AUC [6]: 2.65 µM·h | Papp A→B [2]: 18 ×10⁻⁶ cm/s | half-life [7]: 0.38 h
SMILES: CO[C@H]1CC[C@@H](C(=O)Nc2nc(C)c(-c3ccc(N)nc3)s2)CC1

logD [1]: 3.8 | Papp A→B [2]: 22 ×10⁻⁶ cm/s
SMILES: Cc1nc(NC(=O)[C@H]2CC[C@@H](C(F)(F)F)CC2)sc1-c1ccc(N)nc1

logD [1]: 3.8 | Papp A→B [2]: 20 ×10⁻⁶ cm/s
SMILES: Cc1nc(NC(=O)C2(C)CCCCC2)sc1-c1ccc(N)nc1

Cmax [3]: 1.9 µM | F [8]: 160% | clearance [5]: 40 mL/min/kg | logD [1]: 2.9 | AUC [6]: 9.7 µM·h | Papp A→B [2]: 20 ×10⁻⁶ cm/s | half-life [7]: 1.7 h
SMILES: Cc1nc(NC(=O)C(C)CC(F)(F)F)sc1-c1ccc(N)nc1 (stereo not given)

logD [1]: 4 | Papp A→B [2]: 26 ×10⁻⁶ cm/s
SMILES: Cc1nc(NC(=O)Cc2nc(-c3ccccc3)c(C)o2)sc1-c1ccc(N)nc1

Cmax [9]: 18 µM | Cmax [10]: 55 µM | AUC [11]: 2.7 µM·h | AUC [12]: 44 µM·h | AUC [13]: 176 µM·h | logD [1]: 3.2 | Cmax [14]: 1.8 µM | Papp A→B [2]: 44 ×10⁻⁶ cm/s | clearance [15]: 91 mL/min/kg
SMILES: Cc1nc(NC(=O)[C@H](C)CC(F)(F)F)sc1-c1ccc(N)nc1

Cmax [9]: 20 µM | Cmax [10]: 26 µM | AUC [11]: 4 µM·h | AUC [12]: 38 µM·h | AUC [13]: 12 µM·h | logD [1]: 3.2 | Cmax [14]: 2.2 µM | Papp A→B [2]: 42 ×10⁻⁶ cm/s | clearance [15]: 71 mL/min/kg
SMILES: Cc1nc(NC(=O)[C@@H](C)CC(F)(F)F)sc1-c1ccc(N)nc1

Cmax [9]: 12 µM | Cmax [10]: 59 µM | AUC [11]: 208 µM·h | AUC [12]: 514 µM·h | logD [1]: 3.4 | Cmax [14]: 0.5 µM | Papp A→B [2]: 41 ×10⁻⁶ cm/s | clearance [15]: 58 mL/min/kg
SMILES: Cc1nc(NC(=O)C(C)(C)CC(F)(F)F)sc1-c1ccc(N)nc1

Cmax [3]: 2 µM | Cmax [9]: 15 µM | Cmax [10]: 52 µM | AUC [11]: 3.6 µM·h | AUC [12]: 45 µM·h | bioavailability [4]: 91% | clearance [5]: 18 mL/min/kg | AUC [13]: 307 µM·h | logD [1]: 2.7 | Cmax [14]: 1.9 µM | AUC [6]: 10 µM·h | Papp A→B [2]: 11 ×10⁻⁶ cm/s | half-life [7]: 2.8 h
SMILES: COc1ccc(-c2c(C)nn3c(NCCN4CCOCC4)cc(C)nc23)cc1OC
